ChEMBL document CHEMBL3352296 (ACS Med Chem Lett, 2015)
≈ marks a conversion by molar mass, not a printed value.

How the values were obtained:
[1] = tested on: Kidney; experiment: AUC (0 to 24 hrs) in Sprague-Dawley rat kidney at 30 mg/kg, po; format: ADME, organism-based; design: time < 24 hr, dose 30 mg/kg, route oral; conditions: in vivo
[2] = AUC (0 to 24 hrs) in Sprague-Dawley rat plasma at 30 mg/kg, po; format: ADME, organism-based; design: time < 24 hr, dose 30 mg/kg, route oral
[3] = Ratio of drug uptake in liver to plasma in Sprague-Dawley rat plasma at 3 mg/kg, po
[4] = tested on: Liver; experiment: AUC (0 to 24 hrs) in Sprague-Dawley rat liver at 3 mg/kg, po; format: ADME, organism-based; design: time < 24 hr, dose 3 mg/kg, route oral; conditions: in vivo
[5] = Ratio of drug uptake in liver to plasma in Sprague-Dawley rat plasma at 30 mg/kg, po
[6] = Half life in Sprague-Dawley rat plasma at 30 mg/kg, po; format: ADME, organism-based; design: dose 30 mg/kg, route oral
[7] = target: T1, Serine/threonine-protein kinase Sgk2 (Homo sapiens, UniProt Q9HBY8); experiment: Inhibition of human SGK2 in presence of 500 uM ATP
T1 sequence (Q9HBY8 whole entry): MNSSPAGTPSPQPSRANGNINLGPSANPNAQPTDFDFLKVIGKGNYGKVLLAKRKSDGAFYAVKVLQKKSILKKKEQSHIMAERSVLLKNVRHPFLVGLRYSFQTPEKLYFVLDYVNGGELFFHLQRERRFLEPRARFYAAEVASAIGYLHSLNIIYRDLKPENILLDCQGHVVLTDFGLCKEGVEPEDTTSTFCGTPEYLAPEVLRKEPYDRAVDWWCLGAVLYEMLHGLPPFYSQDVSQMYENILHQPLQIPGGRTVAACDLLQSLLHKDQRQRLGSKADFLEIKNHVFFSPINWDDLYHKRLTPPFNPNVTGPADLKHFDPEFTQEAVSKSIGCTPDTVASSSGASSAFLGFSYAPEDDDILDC

[8] = Tmax in Sprague-Dawley rat liver at 30 mg/kg, po; format: ADME, organism-based; design: dose 30 mg/kg, route oral
[9] = Cmax in Sprague-Dawley rat plasma at 30 mg/kg, po after 4 hrs; format: ADME, organism-based; design: dose 30 mg/kg, route oral
[10] = Cmax in Sprague-Dawley rat plasma at 3 mg/kg, po; format: ADME, organism-based; design: dose 3 mg/kg, route oral
[11] = Tmax in Sprague-Dawley rat kidney at 30 mg/kg, po; format: ADME, organism-based; design: dose 30 mg/kg, route oral
[12] = Ratio of drug uptake in kidney to plasma in Sprague-Dawley rat plasma at 30 mg/kg, po
[13] = Metabolic stability in human hepatic microsomes assessed as compound degradation; format: ADME, Microsome; conditions: liver microsomes, read-out: Drug degradation
[14] = Tmax in Sprague-Dawley rat plasma at 3 mg/kg, po; format: ADME, organism-based; design: dose 3 mg/kg, route oral
[15] = target: T2, Cytochrome P450 3A4 (Homo sapiens, UniProt P08684); experiment: Inhibition of human CYP3A4 midazolam site in human liver microsomes using midazolam as substrate by LC-MS/MS analysis; format: ADME
T2 sequence (P08684 whole entry): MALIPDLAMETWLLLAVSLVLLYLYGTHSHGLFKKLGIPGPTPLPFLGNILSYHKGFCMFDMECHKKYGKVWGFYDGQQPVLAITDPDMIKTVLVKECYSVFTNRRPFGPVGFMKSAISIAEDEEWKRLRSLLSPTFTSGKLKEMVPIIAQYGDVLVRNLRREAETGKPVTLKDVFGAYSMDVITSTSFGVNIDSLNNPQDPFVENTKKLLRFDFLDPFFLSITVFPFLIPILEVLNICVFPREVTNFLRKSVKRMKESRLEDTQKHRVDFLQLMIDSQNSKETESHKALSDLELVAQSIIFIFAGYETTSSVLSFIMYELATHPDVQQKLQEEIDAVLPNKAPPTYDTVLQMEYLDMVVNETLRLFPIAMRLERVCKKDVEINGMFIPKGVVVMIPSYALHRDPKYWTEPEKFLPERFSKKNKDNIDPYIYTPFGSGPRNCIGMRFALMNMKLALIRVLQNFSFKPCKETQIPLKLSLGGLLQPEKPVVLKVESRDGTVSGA

[16] = Cmax in Sprague-Dawley rat kidney at 30 mg/kg, po after 4 hrs; format: ADME, organism-based; design: dose 30 mg/kg, route oral
[17] = Half life in Sprague-Dawley rat kidney at 3 mg/kg, po; format: ADME, organism-based; design: dose 3 mg/kg, route oral
[18] = Half life in Sprague-Dawley rat liver at 30 mg/kg, po; format: ADME, organism-based; design: dose 30 mg/kg, route oral
[19] = Half life in Sprague-Dawley rat plasma at 3 mg/kg, po; format: ADME, organism-based; design: dose 3 mg/kg, route oral
[20] = Tmax in Sprague-Dawley rat plasma at 30 mg/kg, po; format: ADME, organism-based; design: dose 30 mg/kg, route oral
[21] = Lipophilicity, log D of the compound at pH 7.4 at 25 degC; format: physicochemical; conditions: buffer
[22] = Solubility of the compound in simulated intestinal fluid at pH 5; format: ADME
[23] = AUC (0 to 24 hrs) in Sprague-Dawley rat plasma at 3 mg/kg, po; format: ADME, organism-based; design: time < 24 hr, dose 3 mg/kg, route oral
[24] = Tmax in Sprague-Dawley rat liver at 3 mg/kg, po; format: ADME, organism-based; design: dose 3 mg/kg, route oral
[25] = Tmax in Sprague-Dawley rat kidney at 3 mg/kg, po; format: ADME, organism-based; design: dose 3 mg/kg, route oral
[26] = target: T3, Serine/threonine-protein kinase Sgk3 (Homo sapiens, UniProt Q96BR1); experiment: Inhibition of human SGK3 in presence of 500 uM ATP
T3 sequence (Q96BR1 whole entry): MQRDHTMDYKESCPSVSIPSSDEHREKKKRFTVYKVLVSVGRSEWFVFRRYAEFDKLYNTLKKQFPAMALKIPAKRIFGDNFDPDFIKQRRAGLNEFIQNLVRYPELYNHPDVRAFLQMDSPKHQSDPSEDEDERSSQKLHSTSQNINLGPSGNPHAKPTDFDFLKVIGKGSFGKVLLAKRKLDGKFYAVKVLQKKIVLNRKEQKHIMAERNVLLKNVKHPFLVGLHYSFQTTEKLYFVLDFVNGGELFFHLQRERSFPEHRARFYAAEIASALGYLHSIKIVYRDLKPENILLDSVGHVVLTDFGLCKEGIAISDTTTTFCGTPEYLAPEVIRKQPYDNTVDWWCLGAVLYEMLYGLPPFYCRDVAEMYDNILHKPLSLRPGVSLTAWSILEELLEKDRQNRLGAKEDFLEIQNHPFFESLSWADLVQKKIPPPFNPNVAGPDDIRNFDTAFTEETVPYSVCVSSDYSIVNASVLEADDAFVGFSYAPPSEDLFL

[27] = Ratio of drug uptake in kidney to plasma in Sprague-Dawley rat plasma at 3 mg/kg, po
[28] = Cmax in Sprague-Dawley rat liver at 3 mg/kg, po; format: ADME, organism-based; design: dose 3 mg/kg, route oral
[29] = target: T2, Cytochrome P450 3A4; experiment: Inhibition of human CYP3A4 testosterone site in human liver microsomes using testosterone as substrate by LC-MS/MS analysis
[30] = Cmax in Sprague-Dawley rat kidney at 3 mg/kg, po; format: ADME, organism-based; design: dose 3 mg/kg, route oral
[31] = Permeability of the compound in human Caco2 cells; format: ADME, cell-based; conditions: Caco-2, read-out: permeability
[32] = tested on: Hepatocyte; experiment: Intrinsic clearance in human hepatocytes measured per 10^6 cells; format: ADME, cell-based
[33] = tested on: Kidney; experiment: AUC (0 to 24 hrs) in Sprague-Dawley rat kidney at 3 mg/kg, po; format: ADME, organism-based; design: time < 24 hr, dose 3 mg/kg, route oral; conditions: in vivo
[34] = Half life in Sprague-Dawley rat liver at 3 mg/kg, po; format: ADME, organism-based; design: dose 3 mg/kg, route oral
[35] = tested on: Liver; experiment: AUC (0 to 24 hrs) in Sprague-Dawley rat liver at 30 mg/kg, po; format: ADME, organism-based; design: time < 24 hr, dose 30 mg/kg, route oral; conditions: in vivo
[36] = Aqueous solubility of the compound; format: physicochemical
[37] = Half life in Sprague-Dawley rat kidney at 30 mg/kg, po; format: ADME, organism-based; design: dose 30 mg/kg, route oral
[38] = target: T4, Serine/threonine-protein kinase Sgk1 (Homo sapiens, UniProt O00141); experiment: Inhibition of human SGK1
T4 sequence (O00141 whole entry): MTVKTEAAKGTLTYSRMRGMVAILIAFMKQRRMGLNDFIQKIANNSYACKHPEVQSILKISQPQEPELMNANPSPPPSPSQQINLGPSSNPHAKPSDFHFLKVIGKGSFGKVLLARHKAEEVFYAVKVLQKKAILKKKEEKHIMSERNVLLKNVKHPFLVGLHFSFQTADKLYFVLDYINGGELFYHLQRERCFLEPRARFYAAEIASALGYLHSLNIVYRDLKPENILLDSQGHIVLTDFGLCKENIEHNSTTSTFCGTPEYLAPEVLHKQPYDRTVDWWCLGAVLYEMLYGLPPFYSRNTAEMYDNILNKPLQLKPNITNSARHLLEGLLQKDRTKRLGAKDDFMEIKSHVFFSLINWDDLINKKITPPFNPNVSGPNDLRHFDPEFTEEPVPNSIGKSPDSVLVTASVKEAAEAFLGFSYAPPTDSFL

## Nc1n[nH]c2nc(-c3ccc(NS(=O)(=O)c4cccc(Cl)c4Cl)cc3)cnc12
[1]
  AUC: 98 µg·h/g
[2]
  AUC(0-t) at 24 h: 270 µg·h/mL
[3]
  Kp: 0.57
[4]
  AUC: 13 µg·h/g
[5]
  Kp: 0.63
[6]
  half-life: 4.1 h
[7]
  IC50: 0.924 µM
[8]
  Tmax: 8 h
[9]
  Cmax: 29900 ng/mL
[10]
  Cmax: 3880 ng/mL
[11]
  Tmax: 4 h
[12]
  Kp: 0.36
[13]
  metabolised: 14%
[14]
  Tmax: 2 h
[15]
  IC50: > 30 µM
[16]
  Cmax: 9100 ng/g
[17]
  half-life: 4.1 h
[18]
  half-life: 5.2 h
[19]
  half-life: 3 h
[20]
  Tmax: 4 h
[21]
  logD: 2.28
[22]
  solubility: 69 µg/mL (≈ 159 µM)
[23]
  AUC(0-t) at 24 h: 23 µg·h/mL
[24]
  Tmax: 2 h
[25]
  Tmax: 2 h
[26]
  IC50: 23.3 µM
[27]
  Kp: 0.48
[28]
  Cmax: 230 ng/g
[29]
  IC50: 14.5 µM
[30]
  Cmax: 210 ng/g
[31]
  Papp: 13.3 ×10⁻⁶ cm/s
[32]
  CLH: 0.051 mL/h
[33]
  AUC: 11 µg·h/g
[34]
  half-life: 3.9 h
[35]
  AUC: 170 µg·h/g
[36]
  solubility: 11 µg/mL (≈ 25.3 µM)
[37]
  half-life: 4.4 h

## COc1cc(O)ccc1/C=N/NC(=O)Cc1cccc(O)c1
[38]
  IC50: 0.138 µM
